For 7 cell lines, relative viability results are on record in the supplement of paper PMC10307832.

Holding throughout (assay): relative viability (nuclei count vs DMSO), 5 days (fraction); higher = more cells survive
Compound in the assay “Selisistat + Olaparib”: C1CC(C2=C(C1)C3=C(N2)C=CC(=C3)Cl)C(=O)N [Selisistat] + O=C(c1cc(Cc2n[nH]c(=O)c3ccccc23)ccc1F)N1CCN(C(=O)C2CC2)CC1 [Olaparib] (partner 8 µM)
The essentials:
(§1)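 After 5 days of treatment, lung cancer cells in 1536-well plates were fixed and stained in a single step (final 0.05% Triton X-100, 1% formaldehyde, 1 ug/ml Hoechst) and their nuclei counted on 4× images. Treatment had been applied by pin tool the day after seeding as one drug alone or as a fixed anchor-drug dose with five library-drug doses (not always all listed) in √10 steps. Relative viability is the nuclei count of treated wells divided by that of vehicle wells, and values are medians of duplicate plates.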

Compound in the assay “Serdemetan + Trametinib”: c1ccc2c(CCNc3ccc(Nc4ccncc4)cc3)c[nH]c2c1 [Serdemetan] + CC(=O)Nc1cccc(-n2c(=O)n(C3CC3)c(=O)c3c(Nc4ccc(I)cc4F)n(C)c(=O)c(C)c32)c1 [Trametinib] (partner 0.02 µM)
The procedure, abridged:
as §1

Compound in the assay “Serdemetan + OSI-027”: c1ccc2c(CCNc3ccc(Nc4ccncc4)cc3)c[nH]c2c1 [Serdemetan] + COc1cccc2cc(-c3nc([C@H]4CC[C@H](C(=O)O)CC4)n4ncnc(N)c34)[nH]c12 [OSI-027] (partner 0.5 µM)
The essentials: as §1

Compound in the assay “Serdemetan + Crizotinib”: c1ccc2c(CCNc3ccc(Nc4ccncc4)cc3)c[nH]c2c1 [Serdemetan] + C[C@@H](Oc1cc(-c2cnn(C3CCNCC3)c2)cnc1N)c1c(Cl)ccc(F)c1Cl [Crizotinib] (partner 1 µM)
The procedure, abridged:
as §1

Consider NCI-H1915, for which the relative viability with Selisistat + Olaparib (first compound 0.4 µM) was 0.329; in the assay with Selisistat + Olaparib (first compound 1.265 µM), 0.26; with Selisistat + Olaparib (first compound 4 µM), 0.25; with Selisistat + Olaparib (first compound 12.65 µM), 0.252; with Selisistat + Olaparib (first compound 40 µM), 0.304; with Serdemetan + Trametinib (first compound 0.04 µM) it was 0.3. In addition, the relative viability in the assay with Serdemetan + Trametinib (first compound 0.1265 µM) was 0.309; with Serdemetan + Trametinib (first compound 0.4 µM) it was 0.286; in the assay with Serdemetan + Trametinib (first compound 1.265 µM) it was 0.257; with Serdemetan + Trametinib (first compound 4 µM), 0.242; with Serdemetan + OSI-027 (first compound 0.04 µM), 0.683; with Serdemetan + OSI-027 (first compound 0.1265 µM), 0.688. The relative viability was 0.586 with Serdemetan + OSI-027 (first compound 0.4 µM); 0.362 in the assay with Serdemetan + OSI-027 (first compound 1.265 µM); 0.566 with Serdemetan + OSI-027 (first compound 4 µM); 0.86 in the assay with Serdemetan + Crizotinib (first compound 0.04 µM); 0.887 with Serdemetan + Crizotinib (first compound 0.1265 µM); 0.833 in the assay with Serdemetan + Crizotinib (first compound 0.4 µM). The relative viability stood at 0.709 with Serdemetan + Crizotinib (first compound 1.265 µM) and 0.59 with Serdemetan + Crizotinib (first compound 4 µM).

On to NCI-H2405, for which the relative viability is 0.899 with Selisistat + Olaparib (first compound 0.4 µM); 0.909 with Selisistat + Olaparib (first compound 1.265 µM); 0.769 with Selisistat + Olaparib (first compound 12.65 µM); 0.882 in the assay with Selisistat + Olaparib (first compound 40 µM); 0.709 with Serdemetan + Trametinib (first compound 0.04 µM); 0.655 with Serdemetan + Trametinib (first compound 0.1265 µM). The relative viability was 0.64 in the assay with Serdemetan + Trametinib (first compound 0.4 µM); 0.587 with Serdemetan + Trametinib (first compound 1.265 µM); 0.558 in the assay with Serdemetan + Trametinib (first compound 4 µM); 0.591 with Serdemetan + OSI-027 (first compound 0.04 µM); 0.602 in the assay with Serdemetan + OSI-027 (first compound 0.1265 µM); 0.657 in the assay with Serdemetan + OSI-027 (first compound 0.4 µM). Moreover, the relative viability with Serdemetan + OSI-027 (first compound 1.265 µM) was 0.622; with Serdemetan + OSI-027 (first compound 4 µM) it was 0.594; with Serdemetan + Crizotinib (first compound 0.04 µM), 0.81; with Serdemetan + Crizotinib (first compound 0.1265 µM), 0.781; with Serdemetan + Crizotinib (first compound 0.4 µM), 0.818; in the assay with Serdemetan + Crizotinib (first compound 1.265 µM) it was 0.763. In the assay with Serdemetan + Crizotinib (first compound 4 µM), the relative viability is 0.608.

Take NCI-H322M: the relative viability with Selisistat + Olaparib (first compound 0.4 µM) worked out at 0.857; with Selisistat + Olaparib (first compound 1.265 µM), 0.83; with Selisistat + Olaparib (first compound 12.65 µM), 0.845; with Selisistat + Olaparib (first compound 40 µM), 0.868; with Serdemetan + Trametinib (first compound 0.04 µM), 0.502; with Serdemetan + Trametinib (first compound 0.1265 µM), 0.528. The relative viability in the assay with Serdemetan + Trametinib (first compound 0.4 µM) turned out to be 0.488; in the assay with Serdemetan + Trametinib (first compound 1.265 µM), 0.427; in the assay with Serdemetan + Trametinib (first compound 4 µM), 0.431; with Serdemetan + OSI-027 (first compound 0.04 µM), 0.52; in the assay with Serdemetan + OSI-027 (first compound 0.1265 µM), 0.56; with Serdemetan + OSI-027 (first compound 0.4 µM), 0.681. Moreover, the relative viability with Serdemetan + OSI-027 (first compound 1.265 µM) is 0.509; with Serdemetan + OSI-027 (first compound 4 µM) it was 0.422; in the assay with Serdemetan + Crizotinib (first compound 0.04 µM), 0.917; with Serdemetan + Crizotinib (first compound 0.1265 µM), 0.93; with Serdemetan + Crizotinib (first compound 0.4 µM) it was 0.859; with Serdemetan + Crizotinib (first compound 1.265 µM), 0.917. Also, the relative viability with Serdemetan + Crizotinib (first compound 4 µM) turned out to be 0.585.

For NCI-H2170, the relative viability amounted to 0.596 in the assay with Selisistat + Olaparib (first compound 0.4 µM); 0.581 with Selisistat + Olaparib (first compound 1.265 µM); 0.647 with Selisistat + Olaparib (first compound 4 µM); 0.585 with Selisistat + Olaparib (first compound 12.65 µM); 0.664 with Selisistat + Olaparib (first compound 40 µM); 0.912 with Serdemetan + Trametinib (first compound 0.04 µM). The relative viability was 0.988 with Serdemetan + Trametinib (first compound 0.1265 µM); 0.87 with Serdemetan + Trametinib (first compound 0.4 µM); 0.9 in the assay with Serdemetan + Trametinib (first compound 1.265 µM); 0.944 with Serdemetan + Trametinib (first compound 4 µM); 0.686 with Serdemetan + OSI-027 (first compound 0.04 µM); 0.737 in the assay with Serdemetan + OSI-027 (first compound 0.1265 µM). In addition, the relative viability was 0.635 with Serdemetan + OSI-027 (first compound 0.4 µM); 0.367 in the assay with Serdemetan + OSI-027 (first compound 1.265 µM); 0.73 with Serdemetan + OSI-027 (first compound 4 µM); 1.13 with Serdemetan + Crizotinib (first compound 0.04 µM); 1.16 in the assay with Serdemetan + Crizotinib (first compound 0.1265 µM); 1.16 in the assay with Serdemetan + Crizotinib (first compound 0.4 µM). Besides, the relative viability with Serdemetan + Crizotinib (first compound 1.265 µM) and with Serdemetan + Crizotinib (first compound 4 µM) was 1.22 in each case.

Consider NCI-H358, for which the relative viability with Selisistat + Olaparib (first compound 0.4 µM) is 0.724; with Selisistat + Olaparib (first compound 1.265 µM) it was 0.593; with Selisistat + Olaparib (first compound 4 µM), 0.696; in the assay with Selisistat + Olaparib (first compound 12.65 µM) it was 0.553; with Selisistat + Olaparib (first compound 40 µM), 0.662; with Serdemetan + Trametinib (first compound 0.04 µM) it was 0.135. Also, the relative viability with Serdemetan + Trametinib (first compound 0.1265 µM) was 0.144; with Serdemetan + Trametinib (first compound 0.4 µM) it was 0.12; with Serdemetan + Trametinib (first compound 1.265 µM), 0.0947; in the assay with Serdemetan + Trametinib (first compound 4 µM) it was 0.109; with Serdemetan + OSI-027 (first compound 0.04 µM) it was 0.725; with Serdemetan + OSI-027 (first compound 0.1265 µM) it was 0.816. Further, the relative viability with Serdemetan + OSI-027 (first compound 0.4 µM) was 0.969; in the assay with Serdemetan + OSI-027 (first compound 1.265 µM) it was 0.487; in the assay with Serdemetan + OSI-027 (first compound 4 µM) it was 0.536; in the assay with Serdemetan + Crizotinib (first compound 0.04 µM) it was 0.599; with Serdemetan + Crizotinib (first compound 0.1265 µM) it was 0.566; in the assay with Serdemetan + Crizotinib (first compound 0.4 µM), 0.618. Moreover, the relative viability turned out to be 0.593 in the assay with Serdemetan + Crizotinib (first compound 1.265 µM) and 0.292 with Serdemetan + Crizotinib (first compound 4 µM).

Consider NCI-H838, for which the relative viability with Selisistat + Olaparib (first compound 0.4 µM) was found to be 0.833; in the assay with Selisistat + Olaparib (first compound 1.265 µM), 0.782; with Selisistat + Olaparib (first compound 4 µM) it was 0.842; with Selisistat + Olaparib (first compound 12.65 µM), 0.75; with Selisistat + Olaparib (first compound 40 µM), 0.733; with Serdemetan + Trametinib (first compound 0.04 µM) it was 0.47. The relative viability with Serdemetan + Trametinib (first compound 0.1265 µM) turned out to be 0.538; in the assay with Serdemetan + Trametinib (first compound 0.4 µM) it was 0.555; with Serdemetan + Trametinib (first compound 1.265 µM), 0.526; with Serdemetan + Trametinib (first compound 4 µM) it was 0.575; with Serdemetan + OSI-027 (first compound 0.04 µM) it was 0.434; with Serdemetan + OSI-027 (first compound 0.1265 µM), 0.416. Also, the relative viability with Serdemetan + OSI-027 (first compound 0.4 µM) was 0.461; in the assay with Serdemetan + OSI-027 (first compound 1.265 µM), 0.387; with Serdemetan + OSI-027 (first compound 4 µM), 0.463; with Serdemetan + Crizotinib (first compound 0.04 µM), 0.781; with Serdemetan + Crizotinib (first compound 0.1265 µM), 0.886; in the assay with Serdemetan + Crizotinib (first compound 0.4 µM), 0.827. Moreover, the relative viability worked out at 0.794 in the assay with Serdemetan + Crizotinib (first compound 1.265 µM) and 1.01 with Serdemetan + Crizotinib (first compound 4 µM).

For the cell line CAL-12T, the relative viability with Selisistat + Olaparib (first compound 0.4 µM) was found to be 0.765; in the assay with Selisistat + Olaparib (first compound 1.265 µM), 0.675; with Selisistat + Olaparib (first compound 4 µM), 0.689; with Selisistat + Olaparib (first compound 12.65 µM), 0.782; with Selisistat + Olaparib (first compound 40 µM) it was 0.769; in the assay with Serdemetan + Trametinib (first compound 0.04 µM), 0.447. Moreover, the relative viability with Serdemetan + Trametinib (first compound 0.1265 µM) was 0.335; with Serdemetan + Trametinib (first compound 0.4 µM), 0.334; with Serdemetan + Trametinib (first compound 1.265 µM) it was 0.365; with Serdemetan + Trametinib (first compound 4 µM), 0.308; in the assay with Serdemetan + OSI-027 (first compound 0.04 µM), 0.827; with Serdemetan + OSI-027 (first compound 0.1265 µM), 0.638. Further, the relative viability in the assay with Serdemetan + OSI-027 (first compound 0.4 µM) turned out to be 0.653; with Serdemetan + OSI-027 (first compound 1.265 µM), 0.579; in the assay with Serdemetan + OSI-027 (first compound 4 µM), 0.518; in the assay with Serdemetan + Crizotinib (first compound 0.04 µM), 0.63; with Serdemetan + Crizotinib (first compound 0.1265 µM), 0.705; with Serdemetan + Crizotinib (first compound 0.4 µM) it was 0.608. In addition, in the assay with Serdemetan + Crizotinib (first compound 4 µM), the relative viability was 0.74.
